Test results as given in article PMC11062894, “Protein-based bandpass filters for controlling cellular signaling with chemical inputs” (Nature Chemical Biology, 2023).

Test system: GEMS receptors with CBPvene (Bcl2–LD3 and Bcl2high variants), STAT3-driven SEAP in HEK293T cells
Test: GEMS SEAP reporter assay, CBPvene (Bcl2high, LD3-v and Bcl2-v variants) with venetoclax
Format: cell-based
[1] = Supp Fig 10a, Bcl2-v6, venetoclax 1000 nM
[2] = Supp Fig 10a, Bcl2-v6, venetoclax 3160 nM
[3] = Supp Fig 10a, Bcl2-v6, venetoclax 10000 nM
[4] = Supp Fig 10a, Bcl2, venetoclax 316 nM
[5] = Supp Fig 10a, Bcl2, venetoclax 1000 nM
[6] = Supp Fig 10a, Bcl2, venetoclax 3160 nM
[7] = Supp Fig 10a, Bcl2, venetoclax 10000 nM
[8] = Supp Fig 10b, Bcl2-v1, venetoclax 1 nM
[9] = Supp Fig 10b, Bcl2-v1, venetoclax 3.16 nM
[10] = Supp Fig 10b, Bcl2-v1, venetoclax 10 nM
[11] = Supp Fig 10b, Bcl2-v1, venetoclax 31.6 nM
[12] = Supp Fig 10b, Bcl2-v1, venetoclax 100 nM
[13] = Supp Fig 10b, Bcl2-v1, venetoclax 316 nM
[14] = Supp Fig 10b, Bcl2-v1, venetoclax 1000 nM
[15] = Supp Fig 10b, Bcl2-v1, venetoclax 3160 nM
[16] = Supp Fig 10b, Bcl2-v1, venetoclax 10000 nM
[17] = Supp Fig 10b, Bcl2-v2, venetoclax 1 nM
[18] = Supp Fig 10b, Bcl2-v2, venetoclax 3.16 nM
[19] = Supp Fig 10b, Bcl2-v2, venetoclax 10 nM
[20] = Supp Fig 10b, Bcl2-v2, venetoclax 31.6 nM
[21] = Supp Fig 10b, Bcl2-v2, venetoclax 100 nM
[22] = Supp Fig 10b, Bcl2-v2, venetoclax 316 nM
[23] = Supp Fig 10b, Bcl2-v2, venetoclax 1000 nM
[24] = Supp Fig 10b, Bcl2-v3, venetoclax 1 nM
[25] = Supp Fig 10b, Bcl2-v3, venetoclax 3.16 nM
[26] = Supp Fig 10b, Bcl2-v3, venetoclax 10 nM
[27] = Supp Fig 10b, Bcl2-v3, venetoclax 31.6 nM
[28] = Supp Fig 10b, Bcl2-v3, venetoclax 100 nM
[29] = Supp Fig 10b, Bcl2-v3, venetoclax 316 nM
[30] = Supp Fig 10b, Bcl2-v3, venetoclax 1000 nM
[31] = Supp Fig 10b, Bcl2-v3, venetoclax 3160 nM
[32] = Supp Fig 10b, Bcl2-v3, venetoclax 10000 nM
[33] = Supp Fig 10b, Bcl2-v4, venetoclax 1 nM
[34] = Supp Fig 10b, Bcl2-v4, venetoclax 3.16 nM
[35] = Supp Fig 10b, Bcl2-v4, venetoclax 10 nM
[36] = Supp Fig 10b, Bcl2-v4, venetoclax 31.6 nM

CC1(C)CCC(CN2CCN(c3ccc(C(=O)NS(=O)(=O)c4ccc(NCC5CCOCC5)c([N+](=O)[O-])c4)c(Oc4cnc5[nH]ccc5c4)c3)CC2)=C(c2ccc(Cl)cc2)C1 [Venetoclax]
SEAP [1]: 19.2478 | SEAP normalized (max=100) [1]: 45.9867 | SEAP [2]: 13.59 | SEAP normalized (max=100) [2]: 32.4691 | SEAP [3]: 7.797 | SEAP normalized (max=100) [3]: 18.6277 | SEAP [4]: 206.027 | SEAP normalized (max=100) [4]: 100 | SEAP [5]: 118.152 | SEAP normalized (max=100) [5]: 57.3479 | SEAP [6]: 9.9385 | SEAP normalized (max=100) [6]: 4.824 | SEAP [7]: 6.696 | SEAP normalized (max=100) [7]: 3.25 | SEAP [8]: 44.2279 | SEAP normalized (max=100) [8]: 81.6306 | SEAP [9]: 50.6217 | SEAP normalized (max=100) [9]: 93.4314 | SEAP [10]: 46.5279 | SEAP normalized (max=100) [10]: 85.8756 | SEAP [11]: 52.0969 | SEAP normalized (max=100) [11]: 96.1542 | SEAP [12]: 54.1806 | SEAP normalized (max=100) [12]: 100 | SEAP [13]: 42.1946 | SEAP normalized (max=100) [13]: 77.8778 | SEAP [14]: 16.2179 | SEAP normalized (max=100) [14]: 29.933 | SEAP [15]: 5.677 | SEAP normalized (max=100) [15]: 10.4785 | SEAP [16]: 3.434 | SEAP normalized (max=100) [16]: 6.3381 | SEAP [17]: 36.2682 | SEAP normalized (max=100) [17]: 14.0118 | SEAP [18]: 38.2081 | SEAP normalized (max=100) [18]: 14.7612 | SEAP [19]: 49.7513 | SEAP normalized (max=100) [19]: 19.2208 | SEAP [20]: 115.969 | SEAP normalized (max=100) [20]: 44.8031 | SEAP [21]: 258.841 | SEAP normalized (max=100) [21]: 100 | SEAP [22]: 180.703 | SEAP normalized (max=100) [22]: 69.8126 | SEAP [23]: 50.1494 | SEAP normalized (max=100) [23]: 19.3746 | SEAP [24]: 40.7727 | SEAP normalized (max=100) [24]: 77.7639 | SEAP [25]: 41.3533 | SEAP normalized (max=100) [25]: 78.8713 | SEAP [26]: 40.3779 | SEAP normalized (max=100) [26]: 77.0109 | SEAP [27]: 52.4314 | SEAP normalized (max=100) [27]: 100 | SEAP [28]: 43.8328 | SEAP normalized (max=100) [28]: 83.6002 | SEAP [29]: 28.8093 | SEAP normalized (max=100) [29]: 54.9466 | SEAP [30]: 14.8804 | SEAP normalized (max=100) [30]: 28.3807 | SEAP [31]: 13.0836 | SEAP normalized (max=100) [31]: 24.9537 | SEAP [32]: 6.8 | SEAP normalized (max=100) [32]: 12.9702 | SEAP [33]: 29.6608 | SEAP normalized (max=100) [33]: 89.6354 | SEAP [34]: 26.3749 | SEAP normalized (max=100) [34]: 79.7051 | SEAP [35]: 26.5882 | SEAP normalized (max=100) [35]: 80.3497 | SEAP [36]: 28.0379 | SEAP normalized (max=100) [36]: 84.7308 | SEAP (Supp Fig 10b, Bcl2-v4, venetoclax 100 nM): 26.0079
